The text below walks through data of paper PMC4789100 (Environment international, 2009).

Several values for one entry are separate records, joined by “and”; a condition that tells them apart may be missing. Equal values may be shown once. Entries after “also recorded” stand apart in the source; their conditions may differ. Read-outs that look alike come from different tables or passages of the source.

The target in data set [1] is T1, sheep placental cytosolic estrogen sulfotransferase (estradiol as substrate) (Ovis aries, UniProt A0ACI6NYW9).
T1 sequence (A0ACI6NYW9 1-296): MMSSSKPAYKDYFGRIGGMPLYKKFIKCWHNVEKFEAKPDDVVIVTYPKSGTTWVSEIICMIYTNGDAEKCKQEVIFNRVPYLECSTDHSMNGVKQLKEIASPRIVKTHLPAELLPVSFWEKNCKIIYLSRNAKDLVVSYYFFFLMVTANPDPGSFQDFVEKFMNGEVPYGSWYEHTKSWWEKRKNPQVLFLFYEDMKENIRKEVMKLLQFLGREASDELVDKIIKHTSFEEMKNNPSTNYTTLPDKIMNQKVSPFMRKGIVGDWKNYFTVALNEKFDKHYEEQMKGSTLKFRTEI
Type of data set: biochemical.

A further data set concerns expressed human SULT1E1. To be noted: cited from earlier work.
The test system of data set [2] is sheep placental microsomes. The data set can be described thus: Triclosan glucuronidation in placental microsomes with 14C-UDPGA. The conditions noted are these: 1 μM Triclosan; limit of detection <0.5 pmol/min/mg protein. Type of data set: in vitro ADME.
Another data set concerns sheep placental cytosol. The data set can be described thus: Triclosan sulfonation in placental cytosol with 35S-PAPS. It is filed as in vitro ADME.
Experiment in data set [3]: as above
Type of data set: in vitro ADME, sheep. The conditions noted are these: sheep, sheep placental cytosol, pH 7.4.

For data set [4] the following is noted: cited from earlier work.
[5] abbreviates: estradiol as substrate, mean±S.D., n=3.

Turning to `O=C(Nc1ccc(Cl)c(Cl)c1)Nc1ccc(Cl)cc1O` [2′OH-TCC, 2′-hydroxy-triclocarban], in data set [1] (read-out: IC50 for inhibition of estradiol sulfonation, 1 nM estradiol), the IC50 turned out to be 310 ± 40 nM.

Regarding `Oc1c(Cl)cc(-c2ccc(Cl)c(Cl)c2)cc1Cl` [4′OH-CB79, 4-hydroxy-3,3′,4′,5-tetrachlorobiphenyl], the concentration for half-maximal inhibition (IC50) with expressed human SULT1E1 (ref Kester et al., 2000) was 0.2 to 0.6 nM.

Regarding `C[C@]12CC[C@@H]3c4ccc(O)cc4CC[C@H]3[C@@H]1CC[C@@H]2O` [Estradiol, 17-beta-estradiol], the “Estradiol concentration above which partial substrate inhibition is displayed” value in the data set with expressed human SULT1E1 (ref Zhang et al.,1998) is recorded as “above 20 nM”. For the same molecule, in data set [1] (setting [5]), the “Ki, constant for partial inhibition of estradiol sulfotransferase activity by substrate” value was determined as 54.7 ± 25.3 nM and the “Vmin, plateau low rate at high estradiol concentrations” value worked out at 12.1±7.7 pmol/min/mg protein.

`Oc1cc(Cl)ccc1Oc1ccc(Cl)cc1Cl` [Triclosan, 5-chloro-2(2,4-dichlorophenoxy)-phenol]: in data set [2], the Glucuronidation entry was “not a substrate for glucuronidation; also recorded: no detectable glucuronidation”. In addition, in the data set on sheep placental cytosol (Triclosan 0.1 to 10 μM, mean±S.D. of three individual samples), the “Sulfonation apparent Vmax” value was determined as 160±26 pmol/min/mg protein. Further, in the data set with sheep placental cytosol (conditions of estradiol or estrone sulfonation assay with 1 nM Triclosan), the “Fraction of Triclosan that would be sulfonated” value is reported as “less than 0.1%”. Also, the Michaelis-Menten constant (Km) at 15 min in data set [3] stood at 1.14 ± 0.18 µM. Further, the “Reported mean concentration of total Triclosan” value is 0.02 ng/g and 0.07 nM in data set [4] (Breast milk, Sweden, Control female, ref Allmyr et al., 2006b); 0.54 ng/g and 1.87 nM in data set [4] (Breast milk, Sweden, Exposed female, ref Allmyr et al., 2006b); 14 ng/g and 48.4 nM in data set [4] (Serum, Australia, Female 2002, ref Allmyr et al., 2008); 7.2 ng/g and 24.9 nM in data set [4] (Serum, Australia, Female 2004, ref Allmyr et al., 2008); 12 ng/g and 41.5 nM in data set [4] (Serum, Australia, Male 2004, ref Allmyr et al., 2008); 0.07 ng/g and 0.25 nM in data set [4] (Serum, Sweden, Control female, ref Allmyr et al., 2006b). The “Reported mean concentration of total Triclosan” value in data set [4] (Serum, Sweden, Exposed female, ref Allmyr et al., 2006b) was 16 ng/g and 55.3 nM; in data set [4] (Urine, United States, Female, ref Calafat et al., 2008), 10.6 μg/L and 36.6 nM; in data set [4] (Urine, United States, Male, ref Calafat et al., 2008), 16.2 μg/L and 56.0 nM.

For orientation: IC50 means the concentration needed to halve the response being measured. The Km is the concentration of substrate that gives half-maximal velocity.
